This note sets out measurements from patent US20250092066A1, “SUBSTITUTED BICYCLIC HETEROCYCLES AS MALT-1 INHIBITORS” (AURIGENE ONCOLOGY LIMITED, priority 2022, published 2025).

The structures appear in SMILES notation.

This assay addresses MALT-1 (Isoform1) (Homo sapiens (Human), UniProt Q9UDY8). The assay is described as follows: Biochemical fluorescent assay of MALT-1 (Isoform1) enzyme inhibition. The conditions noted are these: recombinant MALT-1 (Isoform1); for inhibition at 1 µM / Percent Inhibition (@ 1 μM): compound at 1 μM; for inhibition at 1 µM: read-out: Percent Inhibition (@ 1 μM); for IC50: 50 μM AC-LRSR-MAC substrate, 240 min. The protocol:
The potency of compounds to inhibit MALT-1 (Isoform1) enzyme was tested in a Fluorescent assay using recombinant MALT-1 (Isoform1, aa-840) generated in-house. The assay buffer was 50 mM HEPES (pH 7.5), 100 mM NaCl, 10 mM DTT, 1 mM EDTA, 0.9 M sodium citrate, 0.01% CHAPS. 1.5 nM of MALT-1 enzyme was incubated with various concentrations of test compounds ([…]) (1% DMSO) in the presence of buffer for 30 minutes at 30° C. The protease reaction was initiated by adding 50 μM of AC-LRSR-MAC (Peptide International, USA) substrate and incubated for 240 min. After 240 min incubation, fluorescence emission of the samples at 460 nm was measured at an excitation of 355 nm. The percent inhibition was calculated using the following formula: […]. IC50 values were determined by fitting the dose-response data to sigmoidal curve fitting equation using Graph pad prism software VS.

Chain of MALT-1 (Isoform1) (Q9UDY8 whole entry, canonical isoform): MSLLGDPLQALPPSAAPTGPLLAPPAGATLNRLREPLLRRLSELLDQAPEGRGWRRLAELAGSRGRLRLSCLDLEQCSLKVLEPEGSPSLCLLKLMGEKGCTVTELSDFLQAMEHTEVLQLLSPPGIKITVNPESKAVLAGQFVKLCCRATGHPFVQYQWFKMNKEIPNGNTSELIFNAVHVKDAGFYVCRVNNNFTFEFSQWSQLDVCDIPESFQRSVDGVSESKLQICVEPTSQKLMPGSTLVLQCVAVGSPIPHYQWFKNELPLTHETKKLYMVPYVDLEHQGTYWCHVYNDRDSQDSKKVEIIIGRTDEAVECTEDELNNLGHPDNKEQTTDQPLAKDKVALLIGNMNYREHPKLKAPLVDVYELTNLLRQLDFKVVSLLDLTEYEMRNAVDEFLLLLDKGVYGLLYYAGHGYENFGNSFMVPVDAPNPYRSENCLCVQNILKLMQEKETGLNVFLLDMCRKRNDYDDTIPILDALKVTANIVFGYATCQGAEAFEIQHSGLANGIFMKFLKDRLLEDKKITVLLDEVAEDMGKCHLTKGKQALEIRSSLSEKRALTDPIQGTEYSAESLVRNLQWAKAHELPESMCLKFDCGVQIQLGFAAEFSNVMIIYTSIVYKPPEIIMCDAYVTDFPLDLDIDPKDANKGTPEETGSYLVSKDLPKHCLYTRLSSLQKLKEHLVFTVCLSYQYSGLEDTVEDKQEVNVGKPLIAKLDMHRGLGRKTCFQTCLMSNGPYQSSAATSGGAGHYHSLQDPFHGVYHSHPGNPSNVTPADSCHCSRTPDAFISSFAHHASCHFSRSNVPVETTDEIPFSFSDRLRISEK

The inhibition is the share of the control response that was lost under treatment. The IC50 is the midpoint of a concentration-inhibition curve. In the case of `COc1cc(NC(=O)Nc2cnc3cc(Cl)nn3c2[C@H](C)OC)cn2nc(C)nc12` [Example 10], the inhibition at 1 µM stood at 38% and the IC50 is more than 250 nM.
The like results for `COC(C)c1c(NC(=O)Nc2cc(Cl)c3ncnn3c2)cnc(C)c1Br` (racemic) [Example 34, 1-(5-bromo-4-(1-methoxyethyl)-6-methylpyridin-3-yl)-3-(8-chloro-[1,2,4]triazolo[1,5-a]pyridin-6-yl)urea] were, in that order, 71% and more than 250 nM.
The like results for `CO[C@@H](C)c1c(NC(=O)Nc2cn3nc(C)nc3c(Br)c2C)cnc2cc(Cl)nn12` [Example 19] were, in that order, 17% and more than 250 nM.
The like results for `CO[C@@H](C)c1c(NC(=O)Nc2cc(Cl)c3nc(C(F)(F)F)nn3c2)cnc2cc(Cl)nn12` [Example 8] were, in that order, 94% and less than 50 nM.
In the case of `CO[C@@H](C)c1c(NC(=O)Nc2cc(Cl)c3nc(C(C)C)nn3c2)cnc2cc(Cl)nn12` [Example 7], the inhibition at 1 µM was found to be 96% and the IC50 was less than 50 nM.
The like results for `COCc1c(NC(=O)Nc2cc(F)c3nc(C)nn3c2)cnc2cc(Cl)nn12` [Example 22] were, in that order, 62% and more than 250 nM.
Take `CCC(OC)c1c(NC(=O)Nc2cc(F)c3nc(C)nn3c2)cnc2cc(Cl)nn12` (single isomer, unassigned) [Example 33a, 1-(2-chloro-7-(1-methoxypropyl)pyrazolo[1,5-a]pyrimidin-6-yl)-3-(8-fluoro-2-methyl-[1,2,4]triazolo[1,5-a]pyridin-6-yl)urea]: the inhibition at 1 µM turned out to be 99% and the IC50 was less than 50 nM.
For `CO[C@@H](C)c1c(NC(=O)Nc2cc(F)c3nc(C)nn3c2)cnc2cc(OC(F)F)nn12` [Example 26] the same measures were 71% and more than 250 nM.
For `COC(C)c1c(NC(=O)Nc2cc(F)c3nc(C)nn3c2)cnc(C)c1Br` (stereo not shown) [Example 36] the same measures were 69% and more than 250 nM.
For `COC(C)c1c(NC(=O)Nc2cc(Cl)c3ncnn3c2)cnc(C)c1Br` (single isomer, unassigned) [Example 34a, 1-(5-bromo-4-(1-methoxyethyl)-6-methylpyridin-3-yl)-3-(8-chloro-[1,2,4]triazolo[1,5-a]pyridin-6-yl)urea], the inhibition at 1 µM amounted to 79% and the IC50 was in the range of 51 to 250 nM.
The like results for `CO[C@@H](C)c1c(NC(=O)Nc2cc(C(F)(F)F)c3ncnn3c2)cnc2cc(Cl)nn12` [Example 4] were, in that order, 94% and 51 to 250 nM.
Turning to `COC(C)c1c(NC(=O)Nc2cc(Cl)c3ncnn3c2)cnc(C)c1Br` (stereo not shown) [Example 34b, 1-(5-bromo-4-(1-methoxyethyl)-6-methylpyridin-3-yl)-3-(8-chloro-[1,2,4]triazolo[1,5-a]pyridin-6-yl)urea], the inhibition at 1 µM turned out to be 33%.
On to `CCC(OC)c1c(NC(=O)Nc2cc(F)c3nc(C)nn3c2)cnc2cc(Cl)nn12` (single isomer, unassigned) [Example 33b, 1-(2-chloro-7-(1-methoxypropyl)pyrazolo[1,5-a]pyrimidin-6-yl)-3-(8-fluoro-2-methyl-[1,2,4]triazolo[1,5-a]pyridin-6-yl)urea], for which the “Percent Inhibition (@ 1 μM)” value was found to be 96% and the IC50 fell in the range of 51 to 250 nM.
In the case of `CO[C@@H](C)c1c(NC(=O)Nc2cc(F)c3ncnn3c2)cnc2cc(C(F)(F)F)nn12` [Example 27], the inhibition at 1 µM came out at 87% and the IC50 was 51 to 250 nM.
In the case of `CO[C@@H](C)c1c(NC(=O)Nc2cc(Cl)c3nc(C)nn3c2)cnc2cc(Cl)nn12` [Example 5], the inhibition at 1 µM was 98% and the IC50 is less than 50 nM.
For `CO[C@@H](C)c1c(NC(=O)Nc2cc(Cl)c3nc(C4CC4)nn3c2)cnc2cc(Cl)nn12` [Example 6] the same measures were 97% and less than 50 nM.
The like results for `CO[C@@H](C)c1c(NC(=O)Nc2cc(F)c3nc(CO)nn3c2)cnc2cc(Cl)nn12` [Example 13] were, in that order, 84% and 51 to 250 nM.
On to `COC(c1c(NC(=O)Nc2cc(F)c3nc(C)nn3c2)cnc2cc(Cl)nn12)C1CC1` (racemic) [Example 32, 1-(2-chloro-7-(cyclopropyl(methoxy)methyl)pyrazolo[1,5-a]pyrimidin-6-yl)-3-(8-fluoro-2-methyl-[1,2,4]triazolo[1,5-a]pyridin-6-yl)urea], for which the inhibition at 1 µM stood at 100% and the IC50 is less than 50 nM.
Take `COC(c1c(NC(=O)Nc2cc(F)c3nc(C)nn3c2)cnc2cc(Cl)nn12)C(C)C` (single isomer, unassigned) [Example 31a, 1-(2-chloro-7-(1-methoxy-2-methylpropyl)pyrazolo[1,5-a]pyrimidin-6-yl)-3-(8-fluoro-2-methyl-[1,2,4]triazolo[1,5-a]pyridin-6-yl)urea]: the inhibition at 1 µM amounted to 100% and the IC50 is less than 50 nM.
Regarding `CO[C@@H](C)c1c(NC(=O)Nc2cc(F)c3nc(C)nn3c2)cnc2cc(C3CC3)nn12` [Example 46], the inhibition at 1 µM is 40% and the IC50 is less than 50 nM.
The like results for `Cc1nc2c(F)cc(NC(=O)Nc3cnc4cc(Cl)nn4c3C(C)C)cn2n1` [Example 16] were, in that order, 90% and less than 50 nM.
In the case of `CO[C@@H](C)c1c(NC(=O)Nc2cc(F)c3nccn3c2)cnc2cc(Cl)nn12` [Example 43], the inhibition at 1 µM was determined as 86% and the IC50 lay in the range of 51 to 250 nM.
As to `CO[C@@H](C)c1c(NC(=O)Nc2cc(F)c3nc(C(=O)N4CCCC4)nn3c2)cnc2cc(Cl)nn12` [Example 48], the inhibition at 1 µM stood at 86% and the IC50 was in the range of 51 to 250 nM.
Take `CO[C@@H](C)c1c(NC(=O)Nc2cc(F)c3ncnn3c2)cnc2cc(C)nn12` [Example 28]: the inhibition at 1 µM came to 84% and the IC50 is more than 250 nM.
For `CO[C@@H](C)c1c(NC(=O)Nc2cc(F)c3nc(C)nn3c2)cnc2cc(Cl)nn12` [Example 9] the same measures were 92% and less than 50 nM.
For `COC(C)c1c(NC(=O)Nc2cc(F)c3nc(C)nn3c2)cnc(C)c1Cl` (stereo not shown) [Example 37] the same measures were 48% and more than 250 nM.
For `COCc1nc2c(F)cc(NC(=O)Nc3cnc4cc(Cl)nn4c3[C@H](C)OC)cn2n1` [Example 17] the same measures were 82% and less than 50 nM.
`CO[C@@H](C)c1c(NC(=O)Nc2ccc3nncn3c2)cnc2cc(Cl)nn12` [Example 20]: the inhibition at 1 µM came to 16% and the IC50 was more than 250 nM.
For `CO[C@@H](C)c1c(NC(=O)Nc2cc(Br)c3ncnn3c2)cnc2cc(Cl)nn12` [Example 3] the same measures were 96% and less than 50 nM.
On to `COC(c1c(NC(=O)Nc2cc(F)c3nc(C)nn3c2)cnc2cc(Cl)nn12)C(C)C` (racemic) [Example 31, 1-(2-chloro-7-(1-methoxy-2-methylpropyl)pyrazolo[1,5-a]pyrimidin-6-yl)-3-(8-fluoro-2-methyl-[1,2,4]triazolo[1,5-a]pyridin-6-yl)urea], for which the inhibition at 1 µM turned out to be 100% and the IC50 was less than 50 nM.
For `COC(c1c(NC(=O)Nc2cc(F)c3nc(C)nn3c2)cnc2cc(Cl)nn12)C1CC1` (single isomer, unassigned) [Example 32b, 1-(2-chloro-7-(cyclopropyl(methoxy)methyl)pyrazolo[1,5-a]pyrimidin-6-yl)-3-(8-fluoro-2-methyl-[1,2,4]triazolo[1,5-a]pyridin-6-yl)urea], the “Percent Inhibition (@ 1 μM)” value came out at 99% and the IC50 is less than 50 nM.
For the molecule `CO[C@@H](C)c1c(NC(=O)Nc2cc(Cl)c3nccn3c2)cnc2cc(Cl)nn12` [Example 40], the inhibition at 1 µM stood at 96% and the IC50 fell in the range of 51 to 250 nM.
The like results for `CCC(OC)c1c(NC(=O)Nc2cc(F)c3nc(C)nn3c2)cnc2cc(Cl)nn12` (racemic) [Example 33, 1-(2-chloro-7-(1-methoxypropyl)pyrazolo[1,5-a]pyrimidin-6-yl)-3-(8-fluoro-2-methyl-[1,2,4]triazolo[1,5-a]pyridin-6-yl)urea] were, in that order, 98% and less than 50 nM.
Consider `CO[C@@H](C)c1c(NC(=O)Nc2cc(Cl)c3ncnn3c2)cnc2cc(Cl)nn12` [Example 2], for which the inhibition at 1 µM is 97% and the IC50 is less than 50 nM.
The like results for `COC(c1c(NC(=O)Nc2cc(F)c3nc(C)nn3c2)cnc2cc(Cl)nn12)C1CC1` (single isomer, unassigned) [Example 32a, 1-(2-chloro-7-(cyclopropyl(methoxy)methyl)pyrazolo[1,5-a]pyrimidin-6-yl)-3-(8-fluoro-2-methyl-[1,2,4]triazolo[1,5-a]pyridin-6-yl)urea] were, in that order, 96% and 51 to 250 nM.
For `CO[C@@H](C)c1c(NC(=O)Nc2cc(C(F)(F)F)c3nc(C)nn3c2)cnc2cc(Cl)nn12` [Example 11] the same measures were 98% and less than 50 nM.
Take `CO[C@@H](C)c1c(NC(=O)Nc2cc(F)c3nc(C)c(C)n3c2)cnc2cc(Cl)nn12` [Example 42]: the inhibition at 1 µM is 79% and the IC50 lay within 51 to 250 nM.
